Laboratory results published in ChEMBL document CHEMBL2380286, “Synthesis, characterization and anti-tumor activity of novel thymoquinone analogs against pancreatic cancer” (2013).
Activity calls are given as the source filed them. The rule behind the calls is not given here.

Key:
MIA PaCa-2 [1] = experiment: Cytotoxicity against human MIAPaCa2 cells at 0.5 uM after 72 hrs by MTT assay; format: functional
MIA PaCa-2 [2] = experiment: Induction of apoptosis in human MIAPaCa2 cells at 10 uM after 72 hrs by Histone DNA ELISA; format: functional, cell-based
BXPC-3 = experiment: Cytotoxicity against human BxPC3 cells at 10 uM after 72 hrs by MTT assay; format: functional, cell-based
MIA PaCa-2 [3] = experiment: Chemo-sensitizing activity in human MIAPaCa2 cells assessed as potentiation of gemcitabine-induced cytotoxicity at 2.5 uM after 72 hrs by MTT assay; format: functional, cell-based
MIA PaCa-2 [4] = experiment: Cytotoxicity against human MIAPaCa2 cells at 5 to 25 uM after 72 hrs by MTT assay; format: functional, cell-based

| SMILES | Activity (MIA PaCa-2 [1]) | Activity (MIA PaCa-2 [2]) | Activity (BXPC-3) | Activity (MIA PaCa-2 [3]) | Activity (MIA PaCa-2 [4]) |
| --- | --- | --- | --- | --- | --- |
| Nc1ccn([C@@H]2O[C@H](CO)[C@@H](O)C2(F)F)c(=O)n1 [GEMCITABINE] | >50% | – | – | – | – |
| CC1=C(/N=C/c2ccc(F)c(F)c2F)C(=O)C(C(C)C)=CC1=O | – | Active | Active | inactive | – |
| CC1=C(/N=C/c2ccc(O)c(O)c2O)C(=O)C(C(C)C)=CC1=O | – | Active | Active | Active | Active |
| CC1=C(N)C(=O)C(C(C)C)=CC1=O | – | – | Active | – | – |
